The source made the active and inactive calls.
What was measured:
[1] = molecular target: T1, ATP-dependent translocase ABCB1 (Homo sapiens, UniProt P08183); test: inhibition of BCRP-mediated JC-1 efflux – Ig-MXP3 cells, flow cytometry, set 2, dose response (AID 504566); format: functional; details: read-out: EC50_MICROM_;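 also: flow cytometry median green fluorescence of retained JC-1 dye; potency of efflux pump inhibition measured as rising substrate retention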
[2] = molecular target: T1, ATP-dependent translocase ABCB1; test: P-gp JC-1 efflux blockade concentration-response – Jurkat-DNR cells, flow cytometry, set 2, dose response (AID 504569); format: functional; details: read-out: EC50_MICROM_;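 also: potency of pump inhibitors that raise cellular JC-1 green fluorescence up to the nicardipine level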
[3] = HPDE-C7 pancreatic duct cell viability loss – fluorescence, HTS (AID 430); format: functional, cell-based; details: Homo sapiens
[4] = viability loss of HPDE-C7K cells – cell-based, fluorescence, HTS, primary screen (AID 431); format: functional; details: Homo sapiens
[5] = mitochondrial function rescue without frataxin homolog – Friedreich's ataxia, plus single-dose screen, dose response (AID 1465); format: functional;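 also: yeast depleted of Yfh1p frataxin homolog grown on glycerol needing respiration; WST-1 tetrazolium dye reduction as measure of cellular dehydrogenase metabolic activity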
Vero [6] = test: cells; format: functional, cell-based; details: Chlorocebus sabaeus
H9c2 = test: cells; format: functional, cell-based; details: Rattus norvegicus, H9c2, Myocardium
Vero [7] = test: cells; format: functional, Chlorocebus sabaeus
[8] = molecular target: Aryl hydrocarbon receptor (Homo sapiens, UniProt P35869); details: Potency;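 also: confirmatory quantitative high-throughput screen measuring activation of the AhR signaling pathway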
[9] = Fluorescence-based cell-based high throughput dose response assay for inhibitors of the interaction of nucleotide-binding oligomerization domain containing 2 (NOD2) and the receptor-interacting serine-threonine kinase 2 (RIPK2).; format: functional; details: Homo sapiens
[10] = molecular target: T2, Mitochondrial peptide methionine sulfoxide reductase (Bos taurus, UniProt P54149); format: functional;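 as to IC50: absorbance read-out, biochemical high-throughput dose-response screen for MsrA inhibitors, confirmatory; recombinant bovine MsrA coupled to E. coli TrxB with NADPH and selenocystamine; potency is for inhibitors of MsrA activity on DMSO substrate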
Caspase-3 = molecular target: T3, Caspase-3 (Homo sapiens, UniProt P42574); format: functional;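 also: Dose-response selectivity test against caspase-3 for candidate inhibitors of sentrin-specific proteases (SENPs)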
T3 sequence (P42574 whole entry): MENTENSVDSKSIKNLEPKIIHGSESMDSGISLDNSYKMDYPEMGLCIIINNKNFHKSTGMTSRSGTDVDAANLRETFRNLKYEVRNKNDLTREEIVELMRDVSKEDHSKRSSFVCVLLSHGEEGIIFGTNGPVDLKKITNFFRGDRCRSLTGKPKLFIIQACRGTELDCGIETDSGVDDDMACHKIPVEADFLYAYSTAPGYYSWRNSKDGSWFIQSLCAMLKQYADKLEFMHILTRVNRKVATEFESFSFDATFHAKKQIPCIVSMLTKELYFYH

[11] = molecular target: T4, Sentrin-specific protease 7 (Homo sapiens, UniProt Q9BQF6); format: functional;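 also: Luminescence-based dose-response confirmation of ultra-high-throughput screening hits, measuring inhibition of SENP7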
T4 sequence (Q9BQF6 whole entry): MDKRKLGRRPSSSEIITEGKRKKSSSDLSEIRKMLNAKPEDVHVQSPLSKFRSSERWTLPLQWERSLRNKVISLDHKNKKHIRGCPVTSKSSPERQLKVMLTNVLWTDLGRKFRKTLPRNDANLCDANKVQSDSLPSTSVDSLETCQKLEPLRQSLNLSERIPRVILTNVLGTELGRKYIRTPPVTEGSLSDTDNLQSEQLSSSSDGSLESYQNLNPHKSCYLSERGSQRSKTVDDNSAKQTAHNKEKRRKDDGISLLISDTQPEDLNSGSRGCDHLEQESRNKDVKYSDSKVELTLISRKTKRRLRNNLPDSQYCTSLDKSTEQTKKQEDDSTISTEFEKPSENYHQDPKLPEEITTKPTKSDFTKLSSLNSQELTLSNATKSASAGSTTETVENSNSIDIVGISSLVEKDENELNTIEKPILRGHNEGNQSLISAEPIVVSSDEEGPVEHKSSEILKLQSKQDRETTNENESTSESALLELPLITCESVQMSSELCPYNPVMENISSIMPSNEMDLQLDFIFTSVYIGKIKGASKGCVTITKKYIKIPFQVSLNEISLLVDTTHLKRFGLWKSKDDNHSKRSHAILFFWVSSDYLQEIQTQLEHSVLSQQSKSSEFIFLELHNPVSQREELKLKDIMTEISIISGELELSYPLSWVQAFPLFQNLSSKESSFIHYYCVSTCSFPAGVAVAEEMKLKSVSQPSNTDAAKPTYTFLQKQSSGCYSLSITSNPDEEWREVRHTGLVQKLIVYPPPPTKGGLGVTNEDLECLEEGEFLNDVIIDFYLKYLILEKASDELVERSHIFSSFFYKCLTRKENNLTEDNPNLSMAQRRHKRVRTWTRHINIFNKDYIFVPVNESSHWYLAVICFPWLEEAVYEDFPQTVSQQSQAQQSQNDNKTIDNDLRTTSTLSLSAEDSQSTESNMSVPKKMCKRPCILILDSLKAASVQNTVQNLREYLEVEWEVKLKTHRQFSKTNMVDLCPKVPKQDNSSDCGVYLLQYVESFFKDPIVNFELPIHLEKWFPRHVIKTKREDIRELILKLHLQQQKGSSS

[12] = molecular target: T5, Sentrin-specific protease 6 (Homo sapiens, UniProt Q9GZR1); format: functional;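 also: Luminescence-based dose-response confirmatory assay of SENP6 inhibition, following up an ultra-high-throughput screen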
T5 sequence (Q9GZR1 whole entry): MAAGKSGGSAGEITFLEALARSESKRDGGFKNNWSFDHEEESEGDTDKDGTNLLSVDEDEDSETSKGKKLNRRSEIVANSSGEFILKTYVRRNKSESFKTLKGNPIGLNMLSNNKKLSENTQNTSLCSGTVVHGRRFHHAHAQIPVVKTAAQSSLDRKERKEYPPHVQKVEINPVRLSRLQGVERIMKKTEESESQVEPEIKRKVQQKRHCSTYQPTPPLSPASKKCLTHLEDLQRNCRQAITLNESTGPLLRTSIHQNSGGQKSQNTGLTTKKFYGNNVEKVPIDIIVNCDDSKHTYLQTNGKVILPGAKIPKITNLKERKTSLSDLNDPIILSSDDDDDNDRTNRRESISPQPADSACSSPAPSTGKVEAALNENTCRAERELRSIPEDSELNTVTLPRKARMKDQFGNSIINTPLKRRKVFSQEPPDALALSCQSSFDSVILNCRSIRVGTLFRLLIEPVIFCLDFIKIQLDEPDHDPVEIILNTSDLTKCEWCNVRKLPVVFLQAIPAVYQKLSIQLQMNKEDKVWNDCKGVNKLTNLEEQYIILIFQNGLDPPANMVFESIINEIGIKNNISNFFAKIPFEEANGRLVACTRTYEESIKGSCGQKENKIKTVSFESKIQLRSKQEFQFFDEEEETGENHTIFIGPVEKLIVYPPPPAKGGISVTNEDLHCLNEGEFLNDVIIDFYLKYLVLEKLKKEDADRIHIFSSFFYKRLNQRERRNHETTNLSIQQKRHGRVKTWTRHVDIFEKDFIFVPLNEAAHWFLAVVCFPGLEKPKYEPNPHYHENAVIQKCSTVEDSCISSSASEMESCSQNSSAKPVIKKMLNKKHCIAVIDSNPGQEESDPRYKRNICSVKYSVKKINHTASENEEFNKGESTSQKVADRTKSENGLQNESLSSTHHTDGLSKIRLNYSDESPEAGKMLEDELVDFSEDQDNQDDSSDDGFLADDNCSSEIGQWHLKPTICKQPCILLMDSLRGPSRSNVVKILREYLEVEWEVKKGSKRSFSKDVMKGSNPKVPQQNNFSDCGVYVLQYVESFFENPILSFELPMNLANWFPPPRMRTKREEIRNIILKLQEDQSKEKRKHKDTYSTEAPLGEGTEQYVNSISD

[13] = molecular target: T6, Sentrin-specific protease 8 (Homo sapiens, UniProt Q96LD8); format: functional;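 also: luminescence read-out of SENP8 inhibition, dose-response confirmation following an ultra-high-throughput screen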
T6 sequence (Q96LD8 whole entry): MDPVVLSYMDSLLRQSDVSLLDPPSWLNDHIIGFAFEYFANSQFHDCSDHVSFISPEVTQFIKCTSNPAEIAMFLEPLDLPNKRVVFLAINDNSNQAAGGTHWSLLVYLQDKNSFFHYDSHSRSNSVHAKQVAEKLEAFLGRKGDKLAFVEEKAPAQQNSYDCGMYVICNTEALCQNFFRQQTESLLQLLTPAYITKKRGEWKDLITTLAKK

[14] = molecular target: Heat shock protein HSP 90-alpha (Homo sapiens, UniProt P07900); format: functional, organism-based
[15] = molecular target: T2, Mitochondrial peptide methionine sulfoxide reductase; test: Absorbance-based biochemical high throughput dose response assay for activators of Methionine sulfoxide reductase A (MsrA).; format: functional
Caspase-6 = molecular target: T7, Caspase-6 (Homo sapiens, UniProt P55212); test: inhibition of CASP6 peptide cleavage – biochemical, VEID-R110 fluorescence, cherry-pick, dose response (AID 720632)
T7 sequence (P55212 whole entry): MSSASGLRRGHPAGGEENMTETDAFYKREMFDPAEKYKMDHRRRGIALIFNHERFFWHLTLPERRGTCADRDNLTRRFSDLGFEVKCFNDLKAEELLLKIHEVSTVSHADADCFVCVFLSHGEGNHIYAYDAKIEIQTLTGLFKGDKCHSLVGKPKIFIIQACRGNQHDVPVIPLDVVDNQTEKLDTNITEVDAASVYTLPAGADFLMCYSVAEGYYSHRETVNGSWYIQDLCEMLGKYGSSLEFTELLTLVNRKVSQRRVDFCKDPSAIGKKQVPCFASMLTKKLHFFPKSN

Caspase-9 = Caspase-9 (Homo sapiens, UniProt P55211); test: inhibitors of purified CASP9 protease – biochemical, fluorescence, plate reader, cherry-picked samples, selectivity assay for caspase-6 inhibitor project, dose response (AID 743293)
Caspase-7 = molecular target: T8, Caspase-7 (Homo sapiens, UniProt P55210); test: caspase-7 enzyme inhibition, selectivity check – biochemical, DEVD-R110 fluorescence, cherry-pick, selectivity assay for caspase-6 inhibitor project, dose response (AID 743295); format: functional
T8 sequence (P55210 whole entry): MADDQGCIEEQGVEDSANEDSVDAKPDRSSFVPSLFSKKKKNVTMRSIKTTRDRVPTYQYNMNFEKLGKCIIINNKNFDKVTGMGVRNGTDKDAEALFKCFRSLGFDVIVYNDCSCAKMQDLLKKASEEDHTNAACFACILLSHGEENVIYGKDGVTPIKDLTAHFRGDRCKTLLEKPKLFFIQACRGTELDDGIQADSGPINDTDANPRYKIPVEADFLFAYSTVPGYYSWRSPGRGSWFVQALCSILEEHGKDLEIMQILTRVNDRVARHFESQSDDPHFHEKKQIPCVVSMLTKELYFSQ

Caspase-8 = Caspase-8 (Homo sapiens, UniProt Q14790); test: inhibitors of purified CASP8 protease – biochemical, Z-IETD-R110 fluorescence, cherry-picked samples, selectivity assay for caspase-6 inhibitor project, dose response (AID 743294)
[16] = molecular target: T9, Polyadenylate-binding protein 1 (Homo sapiens, UniProt P11940); test: MLLE binding blockers, Cy5 peptide tracer – biochemical, fluorescence polarization, Cy5-PAM2 peptide, secondary, miRNA deadenylation inhibitor project, dose response (AID 602260); format: functional; details: read-out: IC50_Mean
[17] = molecular target: T9, Polyadenylate-binding protein 1; test: MLLE domain peptide-binding blockers, IC50 – biochemical, fluorescence polarization, FITC-PAM2 peptide, dose response (AID 602259); format: functional; details: read-out: IC50_Mean
[18] = molecular target: Nuclear receptor subfamily 5 group A member 2 (Homo sapiens, UniProt O00482); format: functional, cell-based;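 also: HEK293T cells transfected with LRH-1 and a StAR promoter luciferase reporter; potency for inhibitors that lower LRH-1 driven reporter light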
Steroidogenic factor 1 = Steroidogenic factor 1 (Homo sapiens, UniProt Q13285); test: Counterscreen for inverse agonists of the liver receptor homolog-1 (LRH-1; NR5A2): Luminescence-based cell-based high throughput dose response assay to identify inverse agonists of the Steroidogenic Factor 1 Nuclear Receptor (SF1; NR5A1).; format: functional
[19] = nonselective StAR promoter luciferase inhibitors – cell-based, luminescence, luciferase reporter, counter-screen for LRH-1 inverse agonist project, dose response (AID 651969); format: functional

T9 sequence (P11940 whole entry, the tested form may be a part): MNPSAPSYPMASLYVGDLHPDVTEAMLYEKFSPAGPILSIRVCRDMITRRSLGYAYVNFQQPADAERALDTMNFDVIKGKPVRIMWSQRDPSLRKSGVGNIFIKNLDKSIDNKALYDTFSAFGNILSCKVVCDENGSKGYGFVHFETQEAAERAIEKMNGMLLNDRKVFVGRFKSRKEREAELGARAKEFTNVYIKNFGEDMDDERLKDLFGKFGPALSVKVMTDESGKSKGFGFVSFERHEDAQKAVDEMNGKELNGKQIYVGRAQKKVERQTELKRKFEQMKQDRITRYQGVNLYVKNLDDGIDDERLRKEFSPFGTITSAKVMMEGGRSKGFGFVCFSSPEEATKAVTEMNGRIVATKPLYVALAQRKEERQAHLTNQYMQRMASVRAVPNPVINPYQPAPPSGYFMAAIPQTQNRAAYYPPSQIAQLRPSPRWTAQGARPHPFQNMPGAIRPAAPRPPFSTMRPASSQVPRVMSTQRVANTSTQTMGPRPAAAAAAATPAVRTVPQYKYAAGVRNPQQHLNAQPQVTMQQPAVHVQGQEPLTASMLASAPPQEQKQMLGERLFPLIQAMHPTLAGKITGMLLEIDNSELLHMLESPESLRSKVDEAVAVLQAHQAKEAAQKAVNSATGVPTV
T1 sequence (P08183 whole entry): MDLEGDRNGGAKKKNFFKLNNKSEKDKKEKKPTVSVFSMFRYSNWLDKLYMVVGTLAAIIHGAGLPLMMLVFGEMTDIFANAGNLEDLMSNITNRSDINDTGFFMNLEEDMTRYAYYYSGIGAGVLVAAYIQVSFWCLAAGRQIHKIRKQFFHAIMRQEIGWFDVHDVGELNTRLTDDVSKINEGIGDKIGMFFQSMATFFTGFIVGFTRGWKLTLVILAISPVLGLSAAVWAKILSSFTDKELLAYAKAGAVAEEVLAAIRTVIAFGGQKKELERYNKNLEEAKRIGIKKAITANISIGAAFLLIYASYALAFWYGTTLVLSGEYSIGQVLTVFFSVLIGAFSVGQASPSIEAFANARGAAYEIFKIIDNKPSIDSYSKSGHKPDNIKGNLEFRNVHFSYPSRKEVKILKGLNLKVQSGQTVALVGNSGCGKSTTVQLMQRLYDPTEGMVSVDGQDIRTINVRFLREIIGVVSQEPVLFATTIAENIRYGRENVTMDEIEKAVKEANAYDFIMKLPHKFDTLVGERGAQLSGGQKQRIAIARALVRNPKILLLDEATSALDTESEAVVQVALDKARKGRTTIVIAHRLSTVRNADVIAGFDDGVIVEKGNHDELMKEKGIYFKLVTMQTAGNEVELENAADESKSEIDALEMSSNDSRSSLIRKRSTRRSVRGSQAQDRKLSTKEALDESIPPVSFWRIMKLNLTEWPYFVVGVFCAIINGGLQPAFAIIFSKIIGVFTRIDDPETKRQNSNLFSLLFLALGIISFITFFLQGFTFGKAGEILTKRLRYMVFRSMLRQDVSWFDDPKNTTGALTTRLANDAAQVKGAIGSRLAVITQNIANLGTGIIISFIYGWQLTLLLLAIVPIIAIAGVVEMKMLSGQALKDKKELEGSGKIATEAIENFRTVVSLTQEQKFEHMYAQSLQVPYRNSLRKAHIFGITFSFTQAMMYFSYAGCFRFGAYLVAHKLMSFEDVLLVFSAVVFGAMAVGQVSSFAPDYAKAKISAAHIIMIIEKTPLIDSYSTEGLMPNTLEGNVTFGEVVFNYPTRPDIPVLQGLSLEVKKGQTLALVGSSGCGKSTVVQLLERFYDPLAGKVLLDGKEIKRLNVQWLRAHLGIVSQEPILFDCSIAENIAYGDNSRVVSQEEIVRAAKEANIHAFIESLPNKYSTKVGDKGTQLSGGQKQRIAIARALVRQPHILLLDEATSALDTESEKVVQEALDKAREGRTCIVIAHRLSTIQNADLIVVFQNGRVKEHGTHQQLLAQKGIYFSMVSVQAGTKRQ
T2 sequence (P54149 whole entry): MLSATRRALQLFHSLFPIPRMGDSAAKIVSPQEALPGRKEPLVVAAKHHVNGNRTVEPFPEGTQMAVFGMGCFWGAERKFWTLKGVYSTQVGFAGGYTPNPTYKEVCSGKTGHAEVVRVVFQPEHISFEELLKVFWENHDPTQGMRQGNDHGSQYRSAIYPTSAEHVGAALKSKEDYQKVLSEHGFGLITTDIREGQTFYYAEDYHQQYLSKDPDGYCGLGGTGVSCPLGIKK
Sequence of Nuclear receptor subfamily 5 group A member 2 (O00482 whole entry): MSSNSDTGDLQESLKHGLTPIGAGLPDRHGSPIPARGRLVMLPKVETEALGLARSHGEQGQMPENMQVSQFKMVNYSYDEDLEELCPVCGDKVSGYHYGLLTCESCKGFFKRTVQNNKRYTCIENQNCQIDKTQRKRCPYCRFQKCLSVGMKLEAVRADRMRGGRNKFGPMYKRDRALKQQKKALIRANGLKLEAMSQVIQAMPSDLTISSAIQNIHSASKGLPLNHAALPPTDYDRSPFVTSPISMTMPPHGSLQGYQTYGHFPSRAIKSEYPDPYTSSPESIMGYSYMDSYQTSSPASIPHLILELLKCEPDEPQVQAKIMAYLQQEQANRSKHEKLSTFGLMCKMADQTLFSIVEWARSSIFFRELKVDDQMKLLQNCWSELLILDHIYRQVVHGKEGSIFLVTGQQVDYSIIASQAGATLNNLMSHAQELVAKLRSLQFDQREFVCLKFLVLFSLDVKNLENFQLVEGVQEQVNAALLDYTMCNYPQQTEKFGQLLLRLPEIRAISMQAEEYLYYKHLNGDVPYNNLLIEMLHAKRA
Sequence of Caspase-8 (Q14790 217-374 limits assumed): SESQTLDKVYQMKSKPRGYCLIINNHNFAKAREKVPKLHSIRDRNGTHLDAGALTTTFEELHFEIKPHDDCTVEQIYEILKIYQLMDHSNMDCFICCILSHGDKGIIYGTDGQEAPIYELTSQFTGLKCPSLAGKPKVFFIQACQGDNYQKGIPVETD
Sequence of Caspase-8 (Q14790 385-479 limits assumed): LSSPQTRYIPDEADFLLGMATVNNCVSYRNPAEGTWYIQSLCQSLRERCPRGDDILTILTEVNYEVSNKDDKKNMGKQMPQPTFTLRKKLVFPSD
Sequence of Steroidogenic factor 1 (Q13285 whole entry): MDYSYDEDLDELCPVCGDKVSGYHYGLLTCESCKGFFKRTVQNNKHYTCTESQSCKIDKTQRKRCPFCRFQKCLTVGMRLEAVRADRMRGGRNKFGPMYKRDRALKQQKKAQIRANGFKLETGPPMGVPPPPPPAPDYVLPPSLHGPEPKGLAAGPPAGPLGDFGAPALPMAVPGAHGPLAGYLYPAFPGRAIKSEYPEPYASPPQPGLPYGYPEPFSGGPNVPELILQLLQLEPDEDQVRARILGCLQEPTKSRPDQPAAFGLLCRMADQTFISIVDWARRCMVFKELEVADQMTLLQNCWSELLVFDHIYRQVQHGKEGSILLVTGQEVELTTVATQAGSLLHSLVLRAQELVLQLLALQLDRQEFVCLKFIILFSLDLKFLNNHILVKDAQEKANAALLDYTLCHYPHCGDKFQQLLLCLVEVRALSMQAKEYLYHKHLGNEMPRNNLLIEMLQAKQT
Sequence of Aryl hydrocarbon receptor (P35869 whole entry, the tested form may be a part): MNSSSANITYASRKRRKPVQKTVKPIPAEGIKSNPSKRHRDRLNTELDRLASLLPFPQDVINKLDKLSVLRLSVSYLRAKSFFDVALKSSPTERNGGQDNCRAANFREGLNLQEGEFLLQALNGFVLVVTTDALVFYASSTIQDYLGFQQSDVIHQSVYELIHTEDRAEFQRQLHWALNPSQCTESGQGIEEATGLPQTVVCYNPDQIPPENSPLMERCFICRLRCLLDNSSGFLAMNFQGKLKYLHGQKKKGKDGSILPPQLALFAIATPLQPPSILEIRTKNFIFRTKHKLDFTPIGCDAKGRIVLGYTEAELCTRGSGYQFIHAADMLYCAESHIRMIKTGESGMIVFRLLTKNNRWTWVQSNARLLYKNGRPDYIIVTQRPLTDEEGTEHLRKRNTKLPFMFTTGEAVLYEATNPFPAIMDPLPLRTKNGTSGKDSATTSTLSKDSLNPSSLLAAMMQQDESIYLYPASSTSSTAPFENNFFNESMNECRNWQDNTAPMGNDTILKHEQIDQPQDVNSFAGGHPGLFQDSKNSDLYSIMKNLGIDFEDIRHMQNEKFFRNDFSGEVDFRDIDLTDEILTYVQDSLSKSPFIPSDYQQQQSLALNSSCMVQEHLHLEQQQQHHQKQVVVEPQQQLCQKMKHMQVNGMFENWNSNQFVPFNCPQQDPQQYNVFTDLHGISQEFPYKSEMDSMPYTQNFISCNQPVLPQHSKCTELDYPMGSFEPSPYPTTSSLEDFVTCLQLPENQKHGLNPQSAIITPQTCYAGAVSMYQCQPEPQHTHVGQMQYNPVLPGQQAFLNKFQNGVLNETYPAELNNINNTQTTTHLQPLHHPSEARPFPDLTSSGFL
Sequence of Caspase-9 (P55211 1-315 limits assumed): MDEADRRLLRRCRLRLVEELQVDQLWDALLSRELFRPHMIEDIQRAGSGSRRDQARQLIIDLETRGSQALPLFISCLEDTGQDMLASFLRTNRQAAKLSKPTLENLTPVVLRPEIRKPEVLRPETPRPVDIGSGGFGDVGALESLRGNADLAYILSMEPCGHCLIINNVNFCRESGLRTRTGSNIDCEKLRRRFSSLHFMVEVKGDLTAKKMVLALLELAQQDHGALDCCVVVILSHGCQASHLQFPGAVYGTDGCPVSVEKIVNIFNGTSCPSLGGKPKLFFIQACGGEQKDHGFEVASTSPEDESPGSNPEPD
Sequence of Caspase-9 (P55211 331-416 limits assumed): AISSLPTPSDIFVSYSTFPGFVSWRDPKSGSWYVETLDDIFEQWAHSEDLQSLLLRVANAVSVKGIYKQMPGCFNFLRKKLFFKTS

## O=C(c1ccco1)N1CCN(c2cc(-c3ccccc3)nc3cc(-c4ccc(F)cc4)nn23)CC1
[1]
  EC50: 1.05 µM (active)
[2]
  EC50: 3.4 µM (active)

## COc1cc(/C=C/C(=O)CC(=O)/C=C/c2ccc(O)c(OC)c2)ccc1O [CURCUMIN]
[3]
  EC50: 13.1 µM (active)
[4]
  EC50: 6.97 µM (active)
[5]
  EC50: > 100 µM (active)
Vero [6]
  IC50: > 25 µM (active)
H9c2
  IC50: > 79 µM (inactive)
Vero [7]
  CC50: 19.5 µM (active)
Vero [7]; Chlorocebus sabaeus, Vero
  CC50: 19.9 µM (active)
[8]
  AC50: 56.2 µM (inconclusive)

## COc1ccc(C2=CC(=O)N(Nc3ccccc3)C2=O)cc1
[9]
  IC50: 4.21 µM (active)

## Cc1ccccc1/C=N/n1c(S)nnc1C1CCCCC1
[10]
  IC50: 155 µM (inactive)

## COc1ccccc1NC(=O)COC(=O)c1ccc([N+](=O)[O-])s1
Caspase-3
  IC50: 11.5 µM (active)
[11]
  IC50: 7.35 µM (active)
[12]
  IC50: 4.94 µM (active)
[13]
  IC50: 3.83 µM (active)
[14]
  AC50: 6.12 µM (active)
[15]
  EC50: 39.4 µM (inactive)
Caspase-6
  AC50: 1.95 µM (active)
Caspase-9
  AC50: 23.7 µM (active)
Caspase-7
  AC50: 16.4 µM (active)
Caspase-8
  AC50: 22 µM (active)

## O=C(CSc1nnc(CNC(=O)c2ccccc2F)o1)Nc1ccc2c(c1)OCCO2
[16]
  IC50: > 66 µM (inactive)
[17]
  IC50: > 66 µM (inactive)
[18]
  IC50: 17.6 µM (inactive)
Steroidogenic factor 1
  IC50: 1.56 µM (active)
[19]
  IC50: 35.9 µM (inactive)
